Test results reported in patent US20090131508A1, “Use of 2-Oxo-1-Pyrrolidone Derivatives for the Preparation of a Drug” (UCB PHARMA, S.A., priority 2005, published 2009).
“Also recorded” adds a separate entry of the source. Read-outs that look alike come from different tables or passages of the source.

What was measured:
[1] = tested on: epilepsy; details: A. J. Gower et al., Eur. J. Pharmacol., 222, (1992), 193-203; cited from earlier work
[2] = tested on: DMCM-induced seizures; experiment: threshold for DMCM-induced seizures in mice; assay type: in vivo, male NMRI mice; details: for Clonic convulsion DMCM threshold dose / First myoclonic jerks DMCM threshold dose: mean ± S.D.
Experimental: The effect of Brivaracetam on the threshold for DMCM-induced seizures is evaluated in male NMRI mice (25-35 g; N=10 per group). The threshold for induction of myoclonic jerks and clonic convulsions in all four extremities is determined by infusing a concentration of 0.5 mg/ml DMCM into the tail vein of unrestrained freely moving mice at a rate of 0.25 ml/min with an infusion pump and a maximum duration of infusion of 2 min. Saline or different doses of Brivaracetam are administered 30 min before DMCM infusion.

[3] = tested on: pentylenetetrazol (PTZ) seizures; experiment: pentylenetetrazol (PTZ) seizures in mice; assay type: in vivo, male NMRI mice; details: PTZ 89 mg/kg s.c., i.p. -30 min, 95% confidence interval in parentheses
Experimental: (§1) The effect of Brivaracetam against maximal electroshock seizures (MES) and pentylenetetrazol (PTZ) seizures is evaluated in male NMRI mice (20-30 g; N=10 per group). MES is induced through corneal electrodes delivering a current of 50 mA for a duration 0.2 s inducing tonic hind limb extension in 100% of saline-treated animals.
(§2) PTZ is administered at a dose of 89 mg/kg s.c. which represents a dose inducing clonic convulsions of all four extremities in 97% of saline-treated animals. The mice are pre-treated with either saline or different doses of Brivaracetam (i.p. adm., −30 min.) and the proportion of mice protected against seizures is recorded.

[4] = tested on: spontaneous spike-and-wave discharges (SWDs); experiment: spike-and-wave discharges in Genetic Absence Epilepsy Rats from Strasbourg; assay type: in vivo, male rats from the Genetic Absence Epilepsy Rat Strain; details: 95% confidence interval in parentheses
Experimental: Male rats from the Genetic Absence Epilepsy Rat Strain are implanted with four platinum electrodes into the left and right frontal cortex and left and right occipital cortex, under pentobarbital anaesthesia. Cortical, spontaneous spike-and-wave discharges (SWDs) are recorded bilaterally from the rats placed into Plexiglass boxes, and prevented for falling asleep by gentle sensory stimulation. After a 20-min habituation period, the rats are injected i.p. with either saline or different doses of Brivaracetam and the EEG recorded continuously over consecutive 20-min intervals up to 120 min. The cumulative duration of the SWDs is calculated.

[5] = plasma levels of brivaracetam in the PPR study; assay type: in vivo; details: human
Experimental: (§3) The aim of the placebo-controlled, single blind, multi-centre study is to explore the photoparoxysmal EEG (Electroencephalogram) response (PPR) in photosensitive epileptic subjects after one single oral dose (10, 20, 40 and 80 mg) of brivaracetam (BRV).
(§4) In the study, nineteen Caucasian subjects with photosensitive epilepsy (15 females, 4 males) with stable PPR in at least one eye condition (eyes open, eyes closed, eye closure) are enrolled. During a 3-day period, subjects underwent standardized intermittent photic stimulation (IPS) at different frequencies to define the standard photosensitivity range (SPR) in frequency steps per subject at fixed time points over the day: predose (−0.5 h) and postdose (1, 2, 4, 6, 8, 24, 28, 32, 48, and 72 h). After the placebo baseline day (day 1), single oral doses of BRV are given, starting at 80 mg, with subsequent lowering or increasing of the dose depending on the results per 4 subjects.
Median time to first response is 0.5 hours for all doses, and median duration of response is approximately 28 hours after 10, 20, or 40 mg BRV. The median duration is longer after 80 mg BRV (59.5 h). Time to maximal reduction in SPR is dose related: 1.5, 1.0, 1.0, and 0.5 hours, respectively, for 10, 20, 40, and 80 mg BRV. Plasma levels of brivaracetam (BRV) reach a peak at approximately 2.0 hours. T1/2 is about 8.5 hours. Effect of BRV is still frequently observable with BRV plasma levels below the lower level of quantification.

[6] = tested on: kindled seizures; experiment: amygdala kindling in rats; assay type: in vivo, male Sprague-Dawley rats; details: i.p. -60 min, 95% confidence interval in parentheses
Experimental: The effect of brivaracetam on kindled seizures is evaluated in male Sprague-Dawley rats (250-350 g) implanted with a bipolar stimulation/recording electrode into the right basolateral amygdala [AP-2.3, L-4.8, V-8.5 (Paxinos and Watson, 1982)], under pentobarbital anaesthesia. Kindling is induced by once daily stimulation, 5 days per week, with 500 μA monophasic square wave pulses, 50 Hz for 1 s (Löscher et al., 1986). The animals are considered kindled after the appearance of at least 10 consecutive stage 4 or 5 seizures according to the scale of Racine (Racine, 1972). Fully kindled rats (N=8 per group) are stimulated once with the same stimulation parameters as above after administration of saline (i.p., −60 min).
This procedure is repeated two days later, after pre-treatment with either saline or different doses of Brivaracetam (i.p., −60 min).
The behavioural effect of stimulation is graded according to the scale of Racine and the proportion of rats protected against generalised motor seizures (stage <3) is recorded.

[7] = tested on: maximal electroshock seizures (MES); experiment: maximal electroshock seizures (MES) in mice; assay type: in vivo, male NMRI mice; details: i.p. -30 min, 95% confidence interval in parentheses
Experimental: as §1, §2

[8] = tested on: audiogenic seizures; experiment: audiogenic seizures in sound-sensitive mice; assay type: in vivo, male genetically sound-sensitive mice; details: i.p. -30 min, 95% confidence interval in parentheses
Experimental: Brivaracetam is tested in male genetically sound-sensitive mice (16-28 g; N=10 per group) responding with wild running, clonic and tonic convulsions to an acoustic stimulation. Audiogenic seizures are induced by an acoustic stimulus (90 dB, 10-20 kHz) applied for 30 s. The mice are pre-treated with either saline or different doses of Brivaracetam (i.p. adm., −30 min.) and the proportion of mice protected against both clonic and tonic convulsions is used as the end point to assess anticonvulsant activity.

[9] = tested on: post-hypoxic myoclonus (auditory stimulus-induced myoclonic jerks); experiment: rat cardiac arrest model of post-hypoxic myoclonus; assay type: in vivo, male Sprague-Dawley rats; details: ip at 10, 30, 100 and 300 mg/kg, 48 hours after cardiac arrest; myoclonus score over 3 hours
Experimental: Brivaracetam is evaluated in a rat model of post-hypoxic myoclonus [Truong et al. (1994) Novel rat cardiac arrest model of post-hypoxic myoclonus. Mov. Disord. 9:201-206]. In this model, male Sprague-Dawley rats are subjected to mechanical-induced cardiac arrest for a short duration of time during which cerebral hypoxic insults are induced.
All surgical procedures are performed under deep anaesthesia (ketamine 85 mg/kg ip and xylazine 15 mg/kg ip). The cardiac arrest is initiated and maintained for a duration of 8 minutes by mechanically obstructing all the major cardiac blood vessels including the aorta by hooking up the vessels with an L-shaped loop inserted into the rat body cavity. […]
These animals show jerking movements in response to auditory stimuli and other features of myoclonus that are similar to those observed in human condition. […] The involuntary muscle jerks in response to each stimulus are scored as follows: 0=no jerks; 1=ear twitch; 2=ear and body jerk; 3=ear, head and shoulder jerk; 4=whole body jerk; and 5=whole body jerk with jumping.
Antimyoclonic activity of Brivaracetam, administered ip at 10, 30, 100 and 300 mg/kg, is evaluated 48 hours after the cardiac arrest. The myoclonus score is recorded at 30 min interval over a period of 3 hours after dosing, in groups of 6 rats per dose.

[10] = tested on: photoparoxysmal EEG response (PPR); experiment: photoparoxysmal EEG response (PPR) study in photosensitive epileptic subjects; assay type: in vivo, human (Caucasian subjects with photosensitive epilepsy); details: for Duration of response, Median (Range) / Time to first response, Median (Range): eye-closure condition, response = SPR change of at least 3 frequency steps
Experimental: as §3, §4
A total of 18 subjects are evaluable. One subject appeared to be no longer sensitive on the baseline day and is therefore not evaluable. Under placebo administration almost no SPR changes from pre-dose in “eye-closure” condition are observed. Important SPR changes or even complete abolishment of the photosensitivity windows are observed after BRV administration at all tested doses.
Descriptive statistics (N, Median (range)) for time to first response and duration of response in “eye-closure” condition are given in the Table 3 below. Response is defined as a SPR change of at least 3 frequency steps.

[11] = 80 mg single oral dose, listed as BRV
[12] = all single doses (10, 20, 40, and 80 mg)

CC[C@H](C(N)=O)N1CCCC1=O [(R)-(+)-α-ethyl-2-oxo-1-pyrrolidine-acetamide]
Activity in the treatment of epilepsy [1]: completely devoid of activity

CCC[C@@H]1CC(=O)N([C@@H](CC)C(N)=O)C1 [Brivaracetam, (2S)-2-[(4R)-2-oxo-4-propylpyrrolidinyl]butanamide]
Clonic convulsion DMCM threshold, change vs control ([2]; Brivaracetam 2.1 mg/kg IP): +46% | First myoclonic jerks DMCM threshold, change vs control ([2]; Brivaracetam 2.1 mg/kg IP): +6% | Clonic convulsion DMCM threshold dose ([2]; Brivaracetam 2.1 mg/kg IP): 3.34 ± 0.93 mg/kg | First myoclonic jerks DMCM threshold dose ([2]; Brivaracetam 2.1 mg/kg IP): 1.05 ± 0.14 mg/kg | Clonic convulsion DMCM threshold, change vs control ([2]; Brivaracetam 6.8 mg/kg IP): +104% | First myoclonic jerks DMCM threshold, change vs control ([2]; Brivaracetam 6.8 mg/kg IP): +11% | Clonic convulsion DMCM threshold dose ([2]; Brivaracetam 6.8 mg/kg IP): 4.68 ± 2.21 mg/kg | First myoclonic jerks DMCM threshold dose ([2]; Brivaracetam 6.8 mg/kg IP): 1.10 ± 0.16 mg/kg | Clonic convulsion DMCM threshold, change vs control ([2]; Brivaracetam 21.2 mg/kg IP): +183% | First myoclonic jerks DMCM threshold, change vs control ([2]; Brivaracetam 21.2 mg/kg IP): +26% | Clonic convulsion DMCM threshold dose ([2]; Brivaracetam 21.2 mg/kg IP): 6.47 ± 2.82 mg/kg | First myoclonic jerks DMCM threshold dose ([2]; Brivaracetam 21.2 mg/kg IP): 1.25 ± 0.14 mg/kg | Clonic convulsion DMCM threshold, change vs control ([2]; Brivaracetam 67.9 mg/kg IP): +182% | First myoclonic jerks DMCM threshold, change vs control ([2]; Brivaracetam 67.9 mg/kg IP): +32% | Clonic convulsion DMCM threshold dose ([2]; Brivaracetam 67.9 mg/kg IP): 6.46 ± 3.16 mg/kg | First myoclonic jerks DMCM threshold dose ([2]; Brivaracetam 67.9 mg/kg IP): 1.31 ± 0.17 mg/kg | Clonic convulsion DMCM threshold, change vs control ([2]; Brivaracetam 212.3 mg/kg IP): +213% | First myoclonic jerks DMCM threshold, change vs control ([2]; Brivaracetam 212.3 mg/kg IP): +36% | Clonic convulsion DMCM threshold dose ([2]; Brivaracetam 212.3 mg/kg IP): 7.16 ± 2.98 mg/kg | First myoclonic jerks DMCM threshold dose ([2]; Brivaracetam 212.3 mg/kg IP): 1.35 ± 0.17 mg/kg | Protective effect ED50 value, clonic convulsions [3]: 30 (10-87) mg/kg i.p. | Protective effect ED50 value, duration of spike-and-wave discharges over 2 hours [4]: 2.6 (0.85-8.1) mg/kg i.p. | half-life ([5]; both sexes, plasma, single oral dose, read-out: T1/2 (converted)): ~8.5 h | half-life ([5]; in vivo, stated as basis of expected effect duration, read-out: half-life of the compound (converted)): ~7.7 h | Time of peak plasma levels ([5]; single oral dose): approximately 2.0 hours | Protective effect ED50 value, secondary generalised seizures [6]: 44 (24-84) mg/kg i.p. | Protective effect ED50 value, tonic hind limb extension [7]: 113 (89-136) mg/kg i.p. | Protective effect ED50 value, clonic convulsions [8]: 2.4 (1.4-4.0) mg/kg i.p. | Protective effect ED50 value, tonic convulsions [8]: 1.4 (0.9-2.1) mg/kg i.p. | Antimyoclonic activity [9]: active | Time to maximal reduction in SPR ([10]; 10 mg single oral dose): 1.5 h | Duration of response, Median (Range) ([10]; 10 mg single oral dose): 29.3 (7.5; 31.5) h | Time to first response, Median (Range) ([10]; 10 mg single oral dose): 0.5 (0.5; 1.0) h | Patients with abolishment of EEG response ([10]; 10 mg single oral dose, reduction in the fourth patient): three out of four | Time to maximal reduction in SPR ([10]; 20 mg single oral dose): 1.0 h | Duration of response, Median (Range) ([10]; 20 mg single oral dose): 27.5 (23.0; 31.5) h | Time to first response, Median (Range) ([10]; 20 mg single oral dose): 0.5 (0.5; 1.0) h | EEG response in all (evaluable) subjects ([10]; 20 mg single oral dose, listed as BRV): abolished; also recorded: complete suppression | Time to maximal reduction in SPR ([10]; 40 mg single oral dose): 1.0 h | Duration of response, Median (Range) ([10]; 40 mg single oral dose): 27.0 (23.5; 47.5) h | Time to first response, Median (Range) ([10]; 40 mg single oral dose): 0.5 (0.5; 1.0) h | Time to maximal reduction in SPR ([10]; 80 mg single oral dose): 0.5 h | Duration of response, Median (Range) ([10]; 80 mg single oral dose): 59.5 (27.5; 71.5) h | Time to first response, Median (Range) ([10]; 80 mg single oral dose): 0.5 (0.5; 0.5) h | Duration of response, Median (Range) [10, 11]: 59.5 h | EEG response in all (evaluable) subjects [10, 11]: abolished; also recorded: complete suppression | Median duration of response ([10]; after 10, 20, or 40 mg single oral dose): approximately 28 hours | Median time to first response ([10]; all doses (10, 20, 40, 80 mg single oral dose)): 0.5 h | Safety and tolerability ([10]; all doses (10, 20, 40, 80 mg single oral dose), human subjects): safe and well tolerated | Subjects with abolished photoparoxysmal EEG response [10, 12]: 78% | Subjects with reduced photoparoxysmal EEG response [10, 12]: 94%
